These are literature values, as cited in US11707478B2, “Method for increasing uridine concentration in blood plasma” (N.V. Nutricia, priority 2016, dated 2023).

Usually Km stands for the substrate concentration at which the rate is half of its maximum.

One data set deals with T1, CNT 1 (Homo sapiens, UniProt O00337).
T1 sequence (O00337 1-649): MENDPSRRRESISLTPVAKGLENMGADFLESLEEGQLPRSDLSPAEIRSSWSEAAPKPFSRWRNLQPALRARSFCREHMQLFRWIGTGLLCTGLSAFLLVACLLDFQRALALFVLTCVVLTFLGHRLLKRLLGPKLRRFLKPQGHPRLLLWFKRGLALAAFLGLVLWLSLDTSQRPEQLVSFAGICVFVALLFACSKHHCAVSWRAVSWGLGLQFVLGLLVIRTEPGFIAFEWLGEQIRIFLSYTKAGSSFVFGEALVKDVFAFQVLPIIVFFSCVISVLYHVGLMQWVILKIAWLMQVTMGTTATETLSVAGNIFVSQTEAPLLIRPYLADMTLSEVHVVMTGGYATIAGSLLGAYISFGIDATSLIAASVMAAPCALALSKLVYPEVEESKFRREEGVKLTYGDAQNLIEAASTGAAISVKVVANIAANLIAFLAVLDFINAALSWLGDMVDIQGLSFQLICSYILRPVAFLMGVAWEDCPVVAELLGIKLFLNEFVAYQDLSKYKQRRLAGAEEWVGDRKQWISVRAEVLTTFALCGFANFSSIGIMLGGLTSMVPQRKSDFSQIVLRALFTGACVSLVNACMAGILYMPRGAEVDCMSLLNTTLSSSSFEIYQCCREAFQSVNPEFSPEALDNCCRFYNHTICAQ
The conditions noted are these: CNT 1 in the gut and in many other cells; read-out: apparent Km value of main transporter.

The conditions of data set [1]: oral administration of uridine, Klubes 1986.

Turning to `O=c1ccn([C@@H]2O[C@H](CO)[C@@H](O)[C@H]2O)c(=O)[nH]1` [Uridine, 1-[(2R,3R,4S,5R)-3,4-dihydroxy-5-(hydroxymethyl)oxolan-2-yl]pyrimidine-2,4-dione], at CNT 1, the Km is 6 to 16 µM. For the same compound, the bioavailability result in data set [1] is recorded as “about 7%”.
